From US5079239A, “Sterol disulfates and methods of use” (Harbor Branch Oceanographic Institution, Inc., priority 1990, dated 1992)
Converted amounts (≈) assume the structure as drawn. Like-named read-outs stand apart in the source and are kept apart here.

Tests used:
[1] = tested on: feline leukemia virus (FeLV); experiment: Feline leukemia virus (FeLV) antiviral drug test; format: cell-based; conditions: for EC50: Feline leukemia virus; for TI: in vitro therapeutic index, ratio of IC50/EC50, FeLV; for activity against the feline leukemia virus: result in words, Tables 1 through 3
Source text: Feline leukemia viruses belong to the retrovirus family. Diseases caused by members of this family in cats have clinical manifestations similar to symptoms observed in humans with diseases caused by the human immunodeficiency viruses. Feline leukemia virus was selected as a representative member of the retrovirus family to use as a model for drug testing to search for compounds effective in preventing viral infection and replication. Cell lines were provided by Hansen Veterinary Immunology, and reagents and protocols for the ELISA assay can be purchased from the same company.
(§1) Antiviral activity on crude extracts is expressed by percent antiviral activity or by using the minus and plus values stated above. The EC50 of an antiviral drug represents the concentration of drug that results in 50% reduction of the viral cytopathic effect and the IC50 represents the concentration resulting in 50% growth inhibition. These values are determined from graphs constructed from the raw data. The in vitro therapeutic index (TI) is the ratio of IC50 /EC50.

[2] = 50% growth inhibition (toxicity) in HIV assay; format: cell-based
Method: as §1

[3] = tested on: human immunodeficiency virus (HIV); experiment: HIV (AIDS virus) antiviral assay; format: cell-based
Method: as §1

murine splenocytes = experiment: Two-way mixed lymphocyte reaction (MLR); format: cell-based, mouse (BALB/c and C57BL/6J)
Method: The pure compound was tested in the two-way mixed lymphocyte reaction (MLR) and a lymphocyte viability assay (LCV) at 500, 50, 5, and 0.5 μg/ml, using murine splenocytes. Cellular proliferation was measured using incorporation of ^3 H-thymidine. Responses were reported as a percent of the positive MLR or LCV control.
1. Murine splenocyte suspensions were prepared separately from BALB/c and C57BL/6J mice. Spleens were aseptically removed and homogenized in RPMI 1640 tissue culture medium (TCM), supplemented with 10% fetal calf serum, 2% 1-glutamine, 15 mM HEPES, 1% antibiotic-antimycotic solution, and 25 μg/ml gentamycin (GIBCO). The cell concentrations were adjusted to 2.5×10^6 cells/ml. Aliquots of each cell population were removed to separate tubes, and the remaining two cell suspensions combined to one tube.
2. Serial, log10 dilutions of the pure compound were made in absolute ethanol, and 10 μl of each dilution were added to wells of microtiter test plates, and allowed to dry.
3. A volume of 0.2 ml of the combined splenocyte suspensions was added to triplicate test wells. Positive control wells received combined splenocyte suspensions in the absence of the test compounds. Negative control wells consisted of separate (not mixed) splenocyte suspensions cultured in the absence of the test compounds.
4. Plates were incubated in 5% CO2 at 37° C. for 86 hours.
5. A volume of 0.05 ml of ^3 H-thymidine (20 (μCi/ml) was added to each well, and the plates incubated in 5% CO2 at 37° C. for an additional 5 hours.
6. The contents of each well of the microtiter plates were harvested onto glass fiber filter strips, and the resulting filter discs placed in scintillation vials to which 2.0 ml of scintillation fluid was added.
7. The amount of incorporated ^3 H-thymidine was determined by counting the vials in a liquid scintillation counter.
8. Triplicate counts were averaged, and the data reported as a percentage of the positive control.

CRFK cells = experiment: Toxicity for CRFK cells (neutral red or MTT assay), FeLV test; format: cell-based
Method: A. Determination of Toxicity of Samples for CRFK Cells with Neutral Red Assay or MTT Assay
This assay is a modification of a procedure provided in detail by Dr. Ellen Borenfreund from Rockefeller University. Borenfreund, E., and J. A. Puerner (1984) "A Simple Quantitative Procedure Using Monolayer Cultures for Cytotoxicity Assays (HTD/NR-90)," J. Tissue Culture Methods 9:7-9.
b. MTT is diluted in D-MEM maintenance medium at a concentration of 1 mg per ml. For the toxicity test 75 microliters are added to each well of a 96-well plate without removing any medium. The plates are incubated for 6 hours at 37° C. At the end of the incubation period the medium is removed. If the cell layer is adherent, plates are not centrifuged to bring the cells down. CRFK is an adherent cell line, and for the MTT assay, no centrifugation is required. To each well 200 microliters of isopropyl alcohol are added. The formazan crystals are dissolved. After mixing, the plates are read with a plate reader at a wavelength of 570 nm. Toxicity percentages are determined the same as for neutral red.
as §1

P388 = experiment: Standard P388 assay (tumor cell growth inhibition); format: cell-based
Source text: HB100 has also been tested to determine its activity in inhibiting the growth of tumor cells.

[4] = Cytotoxicity scoring in coronavirus A59 assay; format: cell-based; conditions: mouse, nctc 1469 cells, read-out: toxicity
Source text: (§2) The antiviral assay for A59 is a cytopathic test (CPE). Susceptible cells are infected with the virus at a dose that infects most of the cells and produces CPE. The characteristic CPE observed is the formation of syncytia. Compounds and extracts which inhibit the CPE are referred to as active samples.
(§3) 1. NCTC clone 1469 is a derivative of mouse liver.
100%=complete cell destruction
75%=partial cell destruction
50%=partial cell destruction
25%=partial cell destruction

[5] = tested on: mouse coronavirus A59 (MHV-A59); experiment: Antiviral assay for mouse coronavirus A59 (CPE); format: cell-based, mouse hepatitis virus strain MHV-A59; design: key to activity: +++: complete inhibition of CPE and cell fusion; ++: partial inhibition; +: partial inhibition; +/-: partial inhibition; -: no protection
Method: as §2, §3
1. Mouse hepatitis virus strain MHV-A59 classified as a coronavirus.
1. Dilute drug or extract for test in the appropriate solvent.
2. Add 20 μl per tube or well.
3. Allow the solvent to evaporate under the laminar flow hood.
4. Dilute the MHV-A59 in Dulbecco's phosphate buffered saline with Ca^++ and Mg^++ to the appropriate predetermined dilution for the lot number currently in use.
5. Remove medium from wells of 24 well plate containing NCTC 1469 cells seeded 24 hours earlier.
6. Medium can be removed by pouring the fluid from the plate and blotting it on a sterile towel.
7. Add 200 lambda of diluted virus to each test well. Add PBS to control wells.
8. Incubate cells and virus for 1 hour at 37° C.
9. Pour off supernatant at end of incubation period.
10. To each glass tube add 10 lambda of dimethyl sulfoxide (DMSO). The purpose for the DMSO is to solubilize the drug. If it is known that the drug under test is water soluble, then the DMSO is not necessary. However, in cases of testing unknown compounds, DMSO may be added, but DMSO causes some toxicity. Since differences have been noted with and without DMSO, the preferred technique is to test the sample under both conditions.
11. Add 1 ml of maintenance medium to each glass tube.
12. Pour the contents of the glass tube into the corresponding well of the tissue culture plate.
13. Incubate infected cells at 37° C. and read the following day.
14. At 12 hours, areas of cell fusion are quite apparent and can be detected both visually and microscopically.
15. […]
To assist in visual interpretation of the data, the antiviral activity is scored from a minus to a three plus based on the percentage of inhibition of viral cytopathic effects. […]

[6] = FeLV assay, 50% growth inhibition, molar value, read-out: IC50 (in parentheses)

Structure (SMILES) | EC50 [1] [µg/mL] | TI [1] | activity against the feline leukemia virus [1] | IC50 [2] [µg/mL] | TI ([3]; in vitro therapeutic index, ratio of IC50/EC50, HIV) | activity against the AIDS virus ([3]; result in words) | activity at 0.05 µg/mL (murine splenocytes; Mus musculus, Splenocyte, 0.05 μg/ml, percent of positive control) [%] | activity at 5 µg/mL (murine splenocytes; Mus musculus, Splenocyte, 5.00 μg/ml, percent of positive control) [%] | activity at 50 µg/mL (murine splenocytes; Mus musculus, Splenocyte, 50.00 μg/ml, percent of positive control) [%] | activity at 500 µg/mL (murine splenocytes; Mus musculus, Splenocyte, 500.00 μg/ml, percent of positive control) [%] | immunosuppressive activity (MLR <100% and LCV >70%) (murine splenocytes; at 50 μg/ml and 5 μg/ml, result in words) | IC50 (CRFK cells) [µg/mL] | IC50 (CRFK cells; [6]) [µM] | IC50 (P388; Mus musculus, standard P388 assay) [µg/mL] | inhibition of growth of tumor cells (P388; result in words) | cytotoxicity ([4]; 2 μg) [%] | cytotoxicity ([4]; 20 μg) [%] | activity ([5]; 2 μg) | activity ([5]; 20 μg) | inhibition of viral growth ([5]; 20 μg, result in words)
CC(C)C1(CCC(C)(O)C2C(O)CC3C4CCC5CC(OS(=O)(=O)O)C(OS(=O)(=O)O)CC5(C)C4CCC32C)CC1C (stereo not drawn) [HB99] | 20 (≈ 31.4 µM) | 17.5 | showed activity against the feline leukemia virus | 350 (≈ 550 µM) | 70 | showed activity against the AIDS virus | 126 | 98 | 19 | 0 | exhibited immunosuppressive activity | 350 | 514 |  |  |  |  |  |  | 
CC(CCC1(C(C)C)CC1C)C1C(O)CC2C3CCC4CC(OS(=O)(=O)O)C(OS(=O)(=O)O)CC4(C)C3CCC21CO (stereo not drawn) [HB100] | 26 (≈ 40.8 µM) | 7.1 | showed activity against the feline leukemia virus |  |  |  |  |  |  |  |  | 185 | 272 | 0.1 (≈ 0.157 µM) | inhibit the growth of tumor cells |  |  |  |  | 
CCCC12OC3CC4C5CCC6CC(OS(=O)(=O)O)C(OS(=O)(=O)O)CC6(C)C5CCC4(C)C3C(C)(O1)C(CC1(C(C)C)CC1C)O2 (stereo not drawn) [HB124] | 6.25 (≈ 8.87 µM) | > 8 | showed activity against the feline leukemia virus |  |  |  |  |  |  |  |  | > 50 | > 68 |  |  | 0 | 25 | - | ++ | significantly inhibit viral growth
